# Results as given in US10508109B2 (priority 2015, dated 2019).
# Where two headings read alike, the source gives them in different places.
# How the values were obtained:
# HFL1 = assay: Cell-based assay, anti-proliferative activity (Cell Counting Kit-8, 72 hours); settings: Homo sapiens, HFL1 cells, read-out: IC50 (μM) HFL1
# How it was run: (§1)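 Cells seeded at 2,000–3,000 per well and exposed 72 h to compound at 0–100 micro-M (2-fold series). Growth measured with CCK-8; IC50 taken as anti-proliferative indicator.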
# CCD-18Co = assay: as above; settings: Homo sapiens, CCD-18Co cells, read-out: IC50 (μM) CCD-18Co
# How it was run: as §1
# HCT-116 = assay: as above; settings: Homo sapiens, HCT-116 cells, read-out: IC50 (μM) HCT-116
# How it was run: as §1
# PC14 = assay: as above; settings: Homo sapiens, PC-14, PC14 cells, read-out: IC50 (μM) PC14
# How it was run: as §1
# A549 = assay: as above; settings: Homo sapiens, A549 cells, read-out: IC50 (μM) A549
# How it was run: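 IC50 values come from growth read-outs taken after the cells' exposure to each candidate inhibitor. Cells had been plated in 96-well microtiter plates beforehand.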
# SUV39H2 = SUV39H2 (Homo sapiens (Human), UniProt Q9H5I1); settings: read-out: IC50 (μM) Suv 39H2 assay; enzyme assay
# Chain of SUV39H2 (Q9H5I1 whole entry): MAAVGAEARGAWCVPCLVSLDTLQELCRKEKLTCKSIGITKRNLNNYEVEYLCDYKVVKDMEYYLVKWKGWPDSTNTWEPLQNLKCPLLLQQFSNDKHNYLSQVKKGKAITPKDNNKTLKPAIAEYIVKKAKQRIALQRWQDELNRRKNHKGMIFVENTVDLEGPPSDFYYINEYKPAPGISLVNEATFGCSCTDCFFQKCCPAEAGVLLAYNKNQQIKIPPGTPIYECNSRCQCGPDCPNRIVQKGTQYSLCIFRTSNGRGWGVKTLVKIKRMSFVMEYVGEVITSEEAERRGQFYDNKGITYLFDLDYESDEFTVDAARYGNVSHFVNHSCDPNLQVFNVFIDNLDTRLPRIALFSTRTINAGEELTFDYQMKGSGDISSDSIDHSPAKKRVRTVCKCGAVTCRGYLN
Compound,"IC50 (HFL1; 72 hours, Cell Counting Kit-8)","IC50 (CCD-18Co; 72 hours, Cell Counting Kit-8)","IC50 (HCT-116; 72 hours, Cell Counting Kit-8)","IC50 (PC14; 72 hours, Cell Counting Kit-8)","IC50 (A549; 72 hours, Cell Counting Kit-8)",IC50 (SUV39H2),"IC50 (HFL1; Cell Counting Kit-8, 72 hours)","IC50 (CCD-18Co; Cell Counting Kit-8, 72 hours)","IC50 (HCT-116; Cell Counting Kit-8, 72 hours)","IC50 (PC14; Cell Counting Kit-8, 72 hours)","IC50 (A549; Cell Counting Kit-8, 72 hours)"
"COc1cc(OC)c(-c2cn3ccc(-c4ccc(C(=O)NCCNCCNC(=O)OC(C)(C)C)cc4)cc3n2)cc1Cl [Example 269, tert-butyl (2-((2-(4-(2-(5-chloro-2,4-dimethoxyphenyl)imidazo[1,2-a]pyridin-7-yl)benzamido)ethyl)amino)ethyl)carbamate]",1.3 µM,0.87 µM,0.75 µM,0.94 µM,1.2 µM,0.0408 µM,–,–,–,–,–
"COc1cc(OC)c(-c2cn3ccc(-c4ccc(C(=O)NC5CCNCC5)cc4)cc3n2)cc1Cl [Example 268, 4-(2-(5-chloro-2,4-dimethoxyphenyl)imidazo[1,2-a]pyridin-7-yl)-N-(piperidin-4-yl)benzamide]",3.8 µM,4.3 µM,2.8 µM,3 µM,4.3 µM,0.0383 µM,–,–,–,–,–
"COc1cc(OC)c(-c2cn3ccc(N4CCN(c5ccnc(N)n5)CC4)cc3n2)cc1Cl [Example 279, 4-(4-(2-(5-chloro-2,4-dimethoxyphenyl)imidazo[1,2-a]pyridin-7-yl)-piperazin-1-yl)pyrimidin-2-amine]",0.33 µM,0.33 µM,0.32 µM,0.38 µM,0.32 µM,0.00938 µM,–,–,–,–,–
"COc1cc(OC)c(-c2nc3cc(N4CCN(C(=O)OC(C)(C)C)CC4)ccn3c2I)cc1Cl [Example 290, tert-butyl 4-(2-(5-chloro-2,4-dimethoxyphenyl)-3-iodoimidazo[1,2-a]-pyridin-7-yl)piperazine-1-carboxylate]",1.3 µM,1.4 µM,1.3 µM,0.61 µM,1.3 µM,0.00975 µM,–,–,–,–,–
"COc1cc(OCCCN(C)C)c(-c2cn3ccc(N4CCN(C(=O)C(C)(C)C)CC4)cc3n2)cc1Cl [Example 156, 1-(4-(2-(5-chloro-2-(3-(dimethylamino)propoxy)-4-methoxyphenyl)imidazo[1,2-a]pyridine-7-yl)piperazin-1-yl)-2,2-dimethylpropan-1-one]",–,–,–,–,–,0.0344 µM,4.4 µM,7.2 µM,6.2 µM,5.8 µM,6.3 µM
"COc1cc(OC)c(-c2cn3ccc(N4CCC(NS(=O)(=O)C5CC5)CC4)cc3n2)cc1Cl [Example 126, N-{1-[2-(5-chloro-2,4-dimethoxyphenyl)imidazo[1,2-a]pyridin-7-yl]piperidin-4-yl}cyclopropanesulfonamide]",–,–,–,–,–,0.014 µM,1.4 µM,1.8 µM,1.9 µM,3.1 µM,2.1 µM
"COc1cc(OCCCN(C)C)c(-c2cn3ccc(N4CCNCC4)cc3n2)cc1Cl [Example 139, 3-{4-chloro-5-methoxy-2-[7-(piperazin-1-yl)imidazo[1,2-a]pyridin-2-yl]phenoxy}-N,N-dimethylpropan-1-amine]",–,–,–,–,–,0.025 µM,1.6 µM,2.5 µM,2.4 µM,2.1 µM,1.7 µM
"COc1cc(OC)c(-c2cn3ccc(N4CCN(CC#N)CC4)cc3n2)cc1Cl [Example 95, 2-(4-(2-(5-chloro-2,4-dimethoxyphenyl)imidazo[1,2-a]pyridin-7-yl)piperazin-1-yl)acetonitrile]",–,–,–,–,–,0.00807 µM,4.1 µM,5.3 µM,3.4 µM,3 µM,2.9 µM
"CCCS(=O)(=O)N1CCN(c2ccn3cc(-c4cc(Cl)c(OC)cc4OC)nc3n2)CC1 [Example 191, 2-(5-chloro-2,4-dimethoxyphenyl)-7-[4-(propylsulfonyl)piperazin-1-yl]-imidazo[1,2-a]pyrimidine]",–,–,–,–,–,0.0293 µM,2 µM,3.2 µM,1.9 µM,1.5 µM,1.5 µM
"COc1cc(OC)c(-c2cn3ccc(-c4ccc(C(=O)NCC5CCCN5)cc4)cc3n2)cc1Cl (stereo not drawn) [Example 248, 4-(2-(5-chloro-2,4-dimethoxyphenyl)imidazo[1,2-a]pyridin-7-yl)-N-(pyrrolidin-2-ylmethyl)benzamide]",5.7 µM,3.1 µM,2.3 µM,2.6 µM,4.6 µM,0.0157 µM,–,–,–,–,–
"COC(=O)N1CCN(c2ccn3cc(-c4cc(Cl)c(OC)cc4OC)nc3c2)CC1 [Example 99, methyl 4-[2-(5-chloro-2,4-dimethoxyphenyl)imidazo[1,2-a]pyridine-7-yl]piperazine-1-carboxylate]",–,–,–,–,–,0.00606 µM,1.8 µM,1.6 µM,1.5 µM,1.9 µM,1.5 µM
"COc1cc(OC)c(-c2cn3ccc(N4CCN(C5CCCC5)CC4)cc3n2)cc1Cl [Example 239, 2-(5-chloro-2,4-dimethoxyphenyl)-7-(4-cyclopentylpiperazin-1-yl)imidazo[1,2-a]pyridine]",1.7 µM,2.1 µM,1.5 µM,1.8 µM,1.5 µM,0.021 µM,–,–,–,–,–
"COc1cc(OC)c(-c2cn3ccc(C4=CCN(CCN5CCOCC5)CC4)cc3n2)cc1Cl [Example 144, 4-(2-{4-[2-(5-chloro-2,4-dimethoxyphenyl)imidazo[1,2-a]pyridin-7-yl]-5,6-dihydropyridin-1(2H)-yl}ethyl)morpholine]",–,–,–,–,–,0.0191 µM,7 µM,6.3 µM,5.9 µM,1.5 µM,3.9 µM
"COc1cc(OC)c(-c2cn3ccc(N4CC[C@H](NCc5ccc([N+](=O)[O-])cc5)C4)cc3n2)cc1Cl [Example 304, (S)-1-(2-(5-chloro-2,4-dimethoxyphenyl)imidazo[1,2-a]pyridin-7-yl)-N-(4-nitrobenzyl)pyrrolidin-3-amine]",0.7 µM,0.49 µM,0.52 µM,0.88 µM,0.87 µM,0.00888 µM,–,–,–,–,–
"COc1cc(OCCCN(C)C)c(-c2cn3ccc(N4CCN(S(=O)(=O)C5CC5)CC4)cc3n2)cc1Cl [Example 160, 3-(4-Chloro-2-{7-[4-(cyclopropylsulfonyl)piperazin-1-yl]imidazo[1,2-a]pyridin-2-yl}-5-methoxyphenoxy)-N,N-dimethylpropan-1-amine]",–,–,–,–,–,0.0277 µM,1.5 µM,2.9 µM,1.2 µM,1.9 µM,1.4 µM
"CCOP(=O)(CCN1CCCN(c2ccn3cc(-c4cc(Cl)c(OC)cc4OC)nc3c2)CC1)OCC [Example 210, diethyl (2-(4-(2-(5-chloro-2,4-dimethoxyphenyl)imidazo[1,2-a]pyridin-7-yl)-1,4-diazepan-1-yl)ethyl)phosphonate]",–,–,–,–,–,0.0029 µM,7.2 µM,5.5 µM,10 µM,4.5 µM,10 µM
"COc1cc(OCCCN(C)C)c(-c2cn3ccc(N4CCC(NC(=O)C(C)(C)C)CC4)cc3n2)cc1Cl [Example 162, N-(1-(2-(5-chloro-2-(3-(dimethylamino)propoxy)-4-methoxyphenyl)-imidazo[1,2-a]pyridin-7-yl)piperidin-4-yl)pivalamide]",–,–,–,–,–,0.0211 µM,2.1 µM,5 µM,3.3 µM,2.1 µM,2.8 µM
